# Experimental data: patent publication US7271181B2, “Inhibitors of p38” (Vertex Pharmaceuticals Incorporated, priority 2001, dated 2007)
# How the values were obtained:
# activated p38 [1] = molecular target: T1, activated p38 (Homo sapiens, UniProt Q16539); experiment: p38 inhibition assay: inhibition of ATPase activity; type: biochemical; settings: ATPase activity of activated p38 (60 nM), various ATP concentrations
# T1 construct: amplify the coding region of CSBP2 cDNA using a HeLa cell library; made in house; host or cells: Trichoplusia ni (Tn-368) High-Five insect cells, baculovirus (virus generated in Sf9)
# Protocol: B. Inhibition of ATPase Activity
# This assay is carried out in the presence of 10 mM MgCl2, 25 mM β-glycerophosphate, 10% glycerol and 100 mM HEPES buffer at pH 7.6. For a typical Ki determination, the Km for ATP in the ATPase activity of activated p38 reaction is determined in the absence of inhibitor and in the presence of two concentrations of inhibitor. A stock solution is prepared containing all of the above components and activated p38 (60 nM). The stock solution is aliquotted into vials. A fixed volume of DMSO or inhibitor in DMSO (final concentration of DMSO in reaction was 2.5%) is introduced to each vial, mixed and incubated for 15 minutes at room temperature. The reaction is initiated by adding various concentrations of ATP and then incubated at 30° C. After 30 minutes, the reactions are quenched with 50 μl of EDTA (0.1 M, final concentration), pH 8.0. The product of p38 ATPase activity, ADP, is quantified by HPLC analysis.
# Separation of ADP from ATP is achieved on a reversed phase column (Supelcosil, LC-18, 3 μm, part no. 5-8985) using a binary solvent gradient of following composition: Solvent A—0.1 M phosphate buffer containing 8 mM tetrabutylammonium hydrogen sulfate (Sigma Chemical Co., catalogue no. T-7158), Solvent B—Solvent A with 30% methanol.
# Ki is determined from the rate data as a function of inhibitor and ATP concentrations.
# activated p38 [2] = molecular target: T1, activated p38; experiment: p38 inhibition assay: inhibition of phosphorylation of EGF receptor peptide; type: biochemical; settings: activated p38 5 nM, EGF receptor peptide 200 μM, ATP 100 μM, 30° C, 30 minutes
# Protocol: A. Inhibition of Phosphorylation of EGF Receptor Peptide
# This assay was carried out in the presence of 10 mM MgCl2, 25 mM β-glycerophosphate, 10% glycerol and 100 mM HEPES buffer at pH 7.6. For a typical IC50 determination, a stock solution was prepared containing all of the above components and activated p38 (5 nM). The stock solution was aliquotted into vials. A fixed volume of DMSO or inhibitor in DMSO (final concentration of DMSO in reaction was 5%) was introduced to each vial, mixed and incubated for 15 minutes at room temperature. EGF receptor peptide, […], a phosphoryl acceptor in p38-catalyzed kinase reaction (1), was added to each vial to a final concentration of 200 μM. The kinase reaction was initiated with ATP (100 μM) and the vials were incubated at 30° C. After 30 minutes, the reactions were quenched with equal volume of 10% trifluoroacetic acid (TFA).
# The phosphorylated peptide was quantified by HPLC analysis. Separation of phosphorylated peptide from the unphosphorylated peptide was achieved on a reverse phase column (Deltapak, 5 μm, C18 100D, Part no. 011795) with a binary gradient of water and acteonitrile, each containing 0.1% TFA. IC50 (concentration of inhibitor yielding 50% inhibition) was determined by plotting the percent (%) activity remaining against inhibitor concentration.
# T1 sequence (Q16539 whole entry): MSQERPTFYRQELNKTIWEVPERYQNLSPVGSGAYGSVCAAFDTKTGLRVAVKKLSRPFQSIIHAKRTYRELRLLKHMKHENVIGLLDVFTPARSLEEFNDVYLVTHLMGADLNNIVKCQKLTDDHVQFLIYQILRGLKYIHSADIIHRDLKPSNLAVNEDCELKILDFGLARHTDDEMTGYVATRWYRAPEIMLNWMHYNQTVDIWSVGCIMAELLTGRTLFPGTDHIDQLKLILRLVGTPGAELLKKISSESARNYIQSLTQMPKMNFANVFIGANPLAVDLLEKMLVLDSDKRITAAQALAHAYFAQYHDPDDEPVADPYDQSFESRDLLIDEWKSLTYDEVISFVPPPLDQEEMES
SMILES,Ki (activated p38 [1]) [µM],IC50 (activated p38 [2]) [nM]
O=C(c1ccc(N(C(=O)OCc2ccccc2)c2c(F)cccc2F)nc1)c1sccc1-n1cccc1 [Compound 635],1 to 10,
COc1cc(C(=O)c2ccc(Nc3c(F)cccc3F)nc2)cc(OC)c1OC [Compound 118],,1000 to 10000
COCC(=O)N(c1ccc(C(=O)c2cccc(C)c2)cn1)c1c(F)cccc1F [Compound 602],,1000 to 10000
O=C(c1ccc(N(C(=O)CCc2ccccc2)c2c(F)cccc2F)nc1)c1ccccc1Cl [Compound 629],1 to 10,
O=C(c1ccc(Nc2c(F)cccc2F)nc1)c1cc(Cl)ccc1Cl [Compound 113],,≤ 1000
Cc1cccc(C(=O)c2ccc(N(C(=O)C(C)Oc3ccccc3)c3c(F)cccc3F)nc2)c1 (centres unmarked) [Compound 612],,≥ 10000
CC(C)(C)c1ccc(C(=O)c2ccc(Nc3c(F)cccc3F)nc2)cc1 [Compound 105],,≤ 1000
O=C(c1ccccc1)c1ccc(N(C(=O)OCc2ccccc2)c2c(F)cccc2F)nc1 [Compound 627],1 to 10,
COC(=O)CCC(=O)N(c1ccc(C(=O)c2ccc(Cl)c(C)c2)cn1)c1c(F)cccc1F [Compound 616],,≥ 10000
Cc1cccc(C(=O)c2ccc(N(C(=O)c3snnc3C)c3c(F)cccc3F)nc2)c1 [Compound 603],,1000 to 10000
Cc1cccc(C(=O)c2ccc(N(C(=O)c3cccc(C(F)(F)F)c3)c3c(F)cccc3F)nc2)c1 [Compound 611],,≤ 1000
O=C(c1ccc(N(C(=O)OCc2ccccc2)c2c(F)cccc2F)nc1)c1ccccc1Cl [Compound 631],1 to 10,
O=C(c1ccc(Nc2c(F)cccc2F)nc1)c1ccc2ccccc2c1 [Compound 110],,≤ 1000
O=C(c1ccc(N(C(=O)Cc2ccc(F)cc2)c2c(F)cccc2F)nc1)c1sccc1-n1cccc1 [Compound 634],1 to 10,
CCOC(=O)C(=O)N(c1ccc(C(=O)c2cc(OC)cc(OC)c2)cn1)c1c(F)cccc1F [Compound 619],,≤ 1000
O=C(c1ccc(Nc2c(F)cccc2F)nc1)c1ccccc1Cl [Compound 107],,≤ 1000
Cc1cccc(C(=O)c2ccc(N(C(=O)c3ccc(F)c(C(F)(F)F)c3)c3c(F)cccc3F)nc2)c1 [Compound 610],,≤ 1000
COc1cc(OC)cc(C(=O)c2ccc(Nc3c(F)cccc3F)nc2)c1 [Compound 115],,≤ 1000
O=C(c1ccc(Nc2c(F)cccc2F)nc1)c1ccc(Cl)c(Cl)c1 [Compound 109],,≥ 10000
O=C(c1ccc(Nc2c(F)cccc2F)nc1)c1cc2ccccc2s1 [Compound 120],,1000 to 10000
CC(=O)N(c1ccc(C(=O)c2cccc(C)c2)cn1)c1c(F)cccc1F [Compound 605],,≤ 1000

SMILES,Ki (activated p38 [1]) [µM],IC50 (activated p38 [2]) [nM]
COC(=O)CCC(=O)N(c1ccc(C(=O)c2cccc(C)c2)cn1)c1c(F)cccc1F [Compound 608],,1000 to 10000
[O-][S+](c1ccccc1)c1ccc(Nc2c(F)cccc2F)nc1 (centres unmarked) [Compound 501],,≥ 10000
CC(Oc1ccccc1)C(=O)N(c1ccc(C(=O)c2sccc2-n2cccc2)cn1)c1c(F)cccc1F (centres unmarked) [Compound 624],,≤ 1000
CCOC(=O)C(=O)N(c1ccc(C(=O)c2ccc(Cl)c(C)c2)cn1)c1c(F)cccc1F [Compound 618],,1000 to 10000
NC(=O)C(c1cc(C(F)(F)F)cc(C(F)(F)F)c1)c1ccc(SCc2ccco2)nn1 (centres unmarked) [Compound 301],,1000 to 10000
Cc1occc1C(=O)c1ccc(Nc2c(F)cccc2F)nc1 [Compound 117],,≤ 1000
Cc1cc(C(=O)c2ccc(N(C(=O)C(C)Oc3ccccc3)c3c(F)cccc3F)nc2)ccc1Cl (centres unmarked) [Compound 617],,1000 to 10000
O=C(c1ccccc1)c1ccc(N(C(=O)CCc2ccccc2)c2c(F)cccc2F)nc1 [Compound 625],1 to 10,
Cc1cccc(C(=O)c2ccc(N(C(=O)C3CCCCC3)c3c(F)cccc3F)nc2)c1 [Compound 607],,≤ 1000
Cc1cccc(C(=O)c2ccc(N(C(=O)c3ccc(Br)cc3)c3c(F)cccc3F)nc2)c1 [Compound 606],,≥ 10000
NC(=O)N(c1ccc(C#CCOc2c(Cl)cccc2Cl)cn1)c1c(F)cccc1F [Compound 402],,≥ 10000
O=C(c1ccc(-c2ccccc2)cc1)c1ccc(Nc2c(F)cccc2F)nc1 [Compound 108],,≤ 1000
Cc1cccc(C(=O)c2ccc(N(C(=O)c3ccccc3)c3c(F)cccc3F)nc2)c1 [Compound 601],,1000 to 10000
O=C(c1ccc(N(C(=O)c2sc3ccccc3c2Cl)c2c(F)cccc2F)nc1)c1sccc1-n1cccc1 [Compound 622],,≤ 1000
O=C(c1ccccc1)c1ccc(N(C(=O)Cc2ccc(F)cc2)c2c(F)cccc2F)nc1 [Compound 626],1 to 10,
O=C(c1ccc(Nc2c(F)cccc2F)nc1)c1sccc1-n1cccc1 [Compound 116],,≤ 1000
COc1ccc(C(=O)c2ccc(Nc3c(F)cccc3F)nc2)cc1OC [Compound 111],,1000 to 10000
O=C(c1ccc(N(C(=O)CCc2ccccc2)c2c(F)cccc2F)nc1)c1sccc1-n1cccc1 [Compound 633],1 to 10,
O=S(=O)(c1ccccc1)c1ccc(Nc2c(F)cccc2F)nc1 [Compound 502],,≥ 10000
O=C(c1ccc(Cl)cc1)c1ccc(Nc2c(F)cccc2F)nc1 [Compound 112],,≤ 1000
Cc1cccc(C(=O)c2ccc(Nc3c(F)cccc3F)nc2)c1 [Compound 104],,≤ 1000

SMILES,Ki (activated p38 [1]) [µM],IC50 (activated p38 [2]) [nM]
O=C(c1ccc(Nc2c(F)cccc2F)nc1)c1cccc(Cl)c1 [Compound 102],,≤ 1000
Cc1cc(C(=O)c2ccc(N(C(=O)c3ccc(Br)cc3)c3c(F)cccc3F)nc2)ccc1Cl [Compound 615],,≥ 10000
CC(C)CC(=O)c1ccc(Nc2c(F)cccc2F)nc1 [Compound 119],,≤ 1000
N#Cc1ccc(C(=O)c2ccc(Nc3c(F)cccc3F)nc2)cc1 [Compound 103],,1000 to 10000
O=C(c1ccc(N(C(=O)c2ccc(Br)cc2)c2c(F)cccc2F)nc1)c1sccc1-n1cccc1 [Compound 620],,≤ 1000
CCCCc1ccc(Nc2c(F)cccc2F)nc1 [Compound 401],,≥ 10000
"O=C(c1ccccc1)c1ccc(Nc2c(F)cccc2F)nc1 [Compound 101, (6-(2,6-Difluorophenylamino)-pyridin-3-yl]-phenylmethanone]",,≤ 1000
O=C(c1ccc(N(C(=O)Cc2ccc(F)cc2)c2c(F)cccc2F)nc1)c1ccccc1Cl [Compound 630],1 to 10,
Cc1cccc(C(=O)c2ccc(N(C(=O)C(C)(C)C)c3c(F)cccc3F)nc2)c1 [Compound 604],,≤ 1000
Cc1cccc(C(=O)c2ccc(N(C(=O)c3sc4ccccc4c3Cl)c3c(F)cccc3F)nc2)c1 [Compound 609],,1000 to 10000
O=C(c1ccccc1)c1ccc(N(C(=O)Oc2ccc(F)cc2)c2c(F)cccc2F)nc1 [Compound 628],1 to 10,
O=C(c1ccc(N(C(=O)Oc2ccc(F)cc2)c2c(F)cccc2F)nc1)c1ccccc1Cl [Compound 632],1 to 10,
Fc1cccc(F)c1Nc1ccc(Sc2ccccc2)cn1 [Compound 503],,≤ 1000
CCOC(=O)C(=O)N(c1ccc(C(=O)c2cccc(C)c2)cn1)c1c(F)cccc1F [Compound 613],,≤ 1000
COC(=O)CCC(=O)N(c1ccc(C(=O)c2sccc2-n2cccc2)cn1)c1c(F)cccc1F [Compound 621],,1000 to 10000
OC(c1ccccc1)c1ccc(Nc2c(F)cccc2F)nc1 (centres unmarked) [Compound 201],,≤ 1000
Cc1cccc(C(=O)c2ccc(N(C(=O)CC(C)C)c3c(F)cccc3F)nc2)c1 [Compound 614],,≤ 1000
O=C(c1ccc(N(C(=O)c2cccc(C(F)(F)F)c2)c2c(F)cccc2F)nc1)c1sccc1-n1cccc1 [Compound 623],,≤ 1000
O=C(c1ccc(Br)cc1)c1ccc(Nc2c(F)cccc2F)nc1 [Compound 106],,≤ 1000
Cc1cc(C(=O)c2ccc(Nc3c(F)cccc3F)nc2)ccc1Cl [Compound 114],,≤ 1000
